Read-outs that look alike come from different tables or passages of the source.
Columns and labels:
[1] = target: T1, Alpha-2A adrenergic receptor, ADRA2A (h) (Homo sapiens, UniProt P08913); details: control yohimbine
T1 sequence (P08913 1-465): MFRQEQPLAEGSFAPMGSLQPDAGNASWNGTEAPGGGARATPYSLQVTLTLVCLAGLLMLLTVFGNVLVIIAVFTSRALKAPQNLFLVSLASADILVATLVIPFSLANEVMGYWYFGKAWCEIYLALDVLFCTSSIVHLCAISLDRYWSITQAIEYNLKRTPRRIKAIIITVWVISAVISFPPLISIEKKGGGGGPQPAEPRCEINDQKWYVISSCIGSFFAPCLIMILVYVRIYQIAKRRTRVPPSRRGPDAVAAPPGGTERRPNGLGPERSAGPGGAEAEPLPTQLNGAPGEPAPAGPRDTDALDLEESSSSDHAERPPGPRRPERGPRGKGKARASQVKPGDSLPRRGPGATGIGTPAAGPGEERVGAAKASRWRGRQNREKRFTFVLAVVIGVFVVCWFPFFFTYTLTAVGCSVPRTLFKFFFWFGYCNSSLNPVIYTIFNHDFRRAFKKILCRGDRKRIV

[2] = target: cAMP-specific 3',5'-cyclic phosphodiesterase 4D, PDE4D (h) (Homo sapiens, UniProt Q08499); assay: IPP PDE4D enzymatic activity; assay type: biochemical; details: control Ro 20-1724
[3] = target: Dopamine receptor D2, DRD2 (h) (Homo sapiens, UniProt P14416); details: control 7-OH-DPAT
[4] = tested on: HepG2 cells; assay: High-throughput transcriptomics (HTTr, TempO-Seq), HepG2, 24 h; assay type: cell-based, human; details: HepG2
Method: (§1) HepG2, HepaRG, and MCF7 cells were treated with each compound for 24 h across a dose range of 7 concentrations and lysed using TempO-Seq lysis buffer (BioSpyder Technologies, proprietary kit, see [Middleton et al. 2022] for method details). Sequencing was performed using TempO-Seq (BioClavis) version 2 of the human whole transcriptome panel and analyzed as described previously in Middleton et al.

[5] = target: T2, Angiotensin II receptor Type-1, AGTR1 (h) (Homo sapiens, UniProt P30556); assay: IPP AGTR1 binding; details: ligand/control Saralasin
T2 construct: purchased Eurofins Cerep (SafetyScreen44-based IPP panel)
T2 sequence (P30556 1-359): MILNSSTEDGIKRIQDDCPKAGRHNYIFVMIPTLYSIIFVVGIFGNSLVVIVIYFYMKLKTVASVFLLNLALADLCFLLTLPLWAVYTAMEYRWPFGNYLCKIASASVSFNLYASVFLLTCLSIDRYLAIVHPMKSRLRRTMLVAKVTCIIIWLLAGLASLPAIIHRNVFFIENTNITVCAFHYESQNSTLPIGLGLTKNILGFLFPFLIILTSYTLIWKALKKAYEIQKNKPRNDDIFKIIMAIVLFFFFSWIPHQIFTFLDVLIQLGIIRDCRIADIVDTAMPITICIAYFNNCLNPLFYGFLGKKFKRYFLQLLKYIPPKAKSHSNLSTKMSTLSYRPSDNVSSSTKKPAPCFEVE

[6] = tested on: Tubulin (r); assay: IPP Tubulin binding; parameters: species or system rat
[7] = target: Kappa-type opioid receptor OPRK1 (h) (Homo sapiens, UniProt P41145); details: control U 50488
[8] = tested on: HepaRG cells; assay: High-throughput transcriptomics (HTTr, TempO-Seq), HepaRG, 24 h; assay type: cell-based, human; details: HepaRG
Method: as §1

[9] = tested on: Sodium channel protein type 5 subunit alpha (site 2), SCN5A (r); assay type: binding, rat
[10] = target: Histamine H1 receptor, HRH1 (h) (Homo sapiens, UniProt P35367); assay: IPP HRH1 binding (antagonist radioligand); details: control pyrilamine
[11] = target: Neuronal acetylcholine receptor subunit alpha-4, CHRNA4 (h) (Homo sapiens, UniProt P17787+P43681); details: control nicotine
[12] = target: Acetylcholinesterase, ACHE (h) (Homo sapiens, UniProt P22303); assay type: biochemical; details: control galanthamine
[13] = target: Cannabinoid receptor 1, CNR1 (h) (Homo sapiens, UniProt P21554); assay type: binding; details: control CP 55940
[14] = target: T3, Alpha-1A adrenergic receptor, ADRA1A (h) (Homo sapiens, UniProt P35348); details: control WB 4101
T3 sequence (P35348 1-466): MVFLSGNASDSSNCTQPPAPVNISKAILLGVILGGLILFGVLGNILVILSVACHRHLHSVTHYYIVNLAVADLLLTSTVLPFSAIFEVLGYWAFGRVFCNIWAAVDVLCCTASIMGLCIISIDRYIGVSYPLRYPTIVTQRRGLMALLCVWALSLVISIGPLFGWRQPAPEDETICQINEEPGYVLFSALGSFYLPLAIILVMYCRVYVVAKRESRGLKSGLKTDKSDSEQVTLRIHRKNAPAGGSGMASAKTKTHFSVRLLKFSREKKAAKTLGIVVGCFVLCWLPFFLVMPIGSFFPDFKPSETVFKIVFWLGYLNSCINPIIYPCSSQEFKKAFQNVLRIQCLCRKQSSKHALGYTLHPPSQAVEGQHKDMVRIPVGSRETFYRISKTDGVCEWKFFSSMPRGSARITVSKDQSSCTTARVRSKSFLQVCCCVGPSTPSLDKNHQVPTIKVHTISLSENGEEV

[15] = target: Sodium-dependent noradrenaline transporter, SLC6A2 (h) (Homo sapiens, UniProt P23975); details: ligand/control protriptyline
[16] = target: Histamine H2 receptor, HRH2 (h) (Homo sapiens, UniProt P25021); assay: IPP HRH2 binding (antagonist radioligand); details: control cimetidine
[17] = target: T4, Muscarinic acetylcholine receptor M3, CHRM3 (h) (Homo sapiens, UniProt P20309); assay type: binding; details: 10 uM; ligand/control 4-DAMP
T4 construct: purchased Eurofins Cerep (SafetyScreen44-based IPP panel)

Chain of Neuronal acetylcholine receptor subunit alpha-4, CHRNA4 (h) (P43681 29-627 limits assumed): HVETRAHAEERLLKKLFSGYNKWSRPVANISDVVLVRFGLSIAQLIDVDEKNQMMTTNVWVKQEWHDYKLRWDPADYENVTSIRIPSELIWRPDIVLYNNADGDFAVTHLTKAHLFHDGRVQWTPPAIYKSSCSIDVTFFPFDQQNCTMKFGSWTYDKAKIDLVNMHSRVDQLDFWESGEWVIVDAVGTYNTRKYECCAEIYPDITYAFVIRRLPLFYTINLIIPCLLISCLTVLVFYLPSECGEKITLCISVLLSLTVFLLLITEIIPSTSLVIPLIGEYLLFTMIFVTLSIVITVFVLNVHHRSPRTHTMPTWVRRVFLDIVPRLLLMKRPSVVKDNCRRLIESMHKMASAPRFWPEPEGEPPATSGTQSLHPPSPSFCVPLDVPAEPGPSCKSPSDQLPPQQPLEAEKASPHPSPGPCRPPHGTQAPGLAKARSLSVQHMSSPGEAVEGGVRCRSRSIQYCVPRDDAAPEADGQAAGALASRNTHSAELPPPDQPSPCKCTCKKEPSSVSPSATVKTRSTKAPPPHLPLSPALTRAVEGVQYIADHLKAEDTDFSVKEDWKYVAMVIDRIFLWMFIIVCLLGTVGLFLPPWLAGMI
Chain of Neuronal acetylcholine receptor subunit alpha-4, CHRNA4 (h) (P17787 26-502): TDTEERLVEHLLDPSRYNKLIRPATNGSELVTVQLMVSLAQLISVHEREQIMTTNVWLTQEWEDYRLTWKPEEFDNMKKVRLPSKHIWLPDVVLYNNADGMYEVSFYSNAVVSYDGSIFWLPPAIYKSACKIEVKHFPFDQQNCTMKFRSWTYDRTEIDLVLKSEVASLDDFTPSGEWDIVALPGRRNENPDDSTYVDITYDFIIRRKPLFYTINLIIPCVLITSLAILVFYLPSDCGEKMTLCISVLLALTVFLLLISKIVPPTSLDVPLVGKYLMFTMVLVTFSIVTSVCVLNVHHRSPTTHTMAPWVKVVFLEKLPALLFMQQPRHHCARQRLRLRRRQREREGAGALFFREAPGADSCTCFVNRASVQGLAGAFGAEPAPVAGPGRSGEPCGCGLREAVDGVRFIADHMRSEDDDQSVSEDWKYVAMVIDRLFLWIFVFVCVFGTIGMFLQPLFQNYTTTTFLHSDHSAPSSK
Chain of cAMP-specific 3',5'-cyclic phosphodiesterase 4D, PDE4D (h) (Q08499 whole entry): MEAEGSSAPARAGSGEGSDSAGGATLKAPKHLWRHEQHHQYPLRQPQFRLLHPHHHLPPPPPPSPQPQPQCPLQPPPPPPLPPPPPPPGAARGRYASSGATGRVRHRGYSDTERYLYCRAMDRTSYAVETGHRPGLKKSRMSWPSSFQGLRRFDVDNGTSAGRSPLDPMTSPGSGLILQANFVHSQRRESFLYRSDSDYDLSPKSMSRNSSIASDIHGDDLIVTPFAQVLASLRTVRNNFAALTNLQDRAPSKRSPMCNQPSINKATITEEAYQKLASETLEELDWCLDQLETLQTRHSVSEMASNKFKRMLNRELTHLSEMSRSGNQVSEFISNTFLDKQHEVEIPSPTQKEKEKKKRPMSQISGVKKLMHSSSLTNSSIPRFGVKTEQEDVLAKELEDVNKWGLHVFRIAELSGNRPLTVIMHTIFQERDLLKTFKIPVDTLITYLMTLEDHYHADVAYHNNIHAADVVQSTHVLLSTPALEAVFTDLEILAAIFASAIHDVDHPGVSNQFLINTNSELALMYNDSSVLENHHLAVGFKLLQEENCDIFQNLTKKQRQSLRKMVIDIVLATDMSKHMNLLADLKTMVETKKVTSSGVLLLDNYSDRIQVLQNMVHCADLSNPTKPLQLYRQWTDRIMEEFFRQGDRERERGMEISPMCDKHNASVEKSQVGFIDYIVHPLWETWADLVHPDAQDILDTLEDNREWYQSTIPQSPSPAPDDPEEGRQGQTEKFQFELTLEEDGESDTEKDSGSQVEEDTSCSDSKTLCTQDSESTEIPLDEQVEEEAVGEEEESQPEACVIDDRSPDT
Chain of Cannabinoid receptor 1, CNR1 (h) (P21554 whole entry): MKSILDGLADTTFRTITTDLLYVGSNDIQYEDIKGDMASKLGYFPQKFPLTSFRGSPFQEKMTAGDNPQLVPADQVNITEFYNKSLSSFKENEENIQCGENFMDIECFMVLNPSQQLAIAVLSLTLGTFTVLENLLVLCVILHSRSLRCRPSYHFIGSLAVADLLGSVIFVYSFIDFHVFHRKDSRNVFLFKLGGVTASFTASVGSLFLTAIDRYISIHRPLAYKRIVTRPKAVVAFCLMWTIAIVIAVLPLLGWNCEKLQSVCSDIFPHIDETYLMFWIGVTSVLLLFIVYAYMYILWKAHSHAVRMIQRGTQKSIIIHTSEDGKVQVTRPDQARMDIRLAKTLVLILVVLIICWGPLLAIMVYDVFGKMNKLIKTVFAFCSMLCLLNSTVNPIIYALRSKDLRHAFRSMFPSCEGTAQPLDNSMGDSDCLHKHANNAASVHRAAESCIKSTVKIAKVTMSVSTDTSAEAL
Chain of Sodium-dependent noradrenaline transporter, SLC6A2 (h) (P23975 whole entry): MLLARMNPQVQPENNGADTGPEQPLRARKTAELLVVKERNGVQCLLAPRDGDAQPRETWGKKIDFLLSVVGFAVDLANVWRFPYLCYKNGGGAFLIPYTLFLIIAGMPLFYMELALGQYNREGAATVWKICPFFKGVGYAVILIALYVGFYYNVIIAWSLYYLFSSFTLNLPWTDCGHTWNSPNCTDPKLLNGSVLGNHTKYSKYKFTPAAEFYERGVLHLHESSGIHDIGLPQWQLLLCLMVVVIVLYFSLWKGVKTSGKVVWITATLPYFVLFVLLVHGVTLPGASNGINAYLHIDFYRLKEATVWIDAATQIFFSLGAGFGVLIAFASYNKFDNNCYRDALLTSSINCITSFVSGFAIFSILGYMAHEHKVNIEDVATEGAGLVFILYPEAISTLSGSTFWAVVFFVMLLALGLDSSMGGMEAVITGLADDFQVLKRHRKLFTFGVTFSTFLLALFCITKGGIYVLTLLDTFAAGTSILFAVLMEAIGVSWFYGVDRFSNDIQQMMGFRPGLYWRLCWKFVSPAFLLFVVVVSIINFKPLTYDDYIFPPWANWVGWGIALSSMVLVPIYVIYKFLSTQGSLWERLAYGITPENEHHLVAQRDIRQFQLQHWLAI
Chain of Dopamine receptor D2, DRD2 (h) (P14416 whole entry): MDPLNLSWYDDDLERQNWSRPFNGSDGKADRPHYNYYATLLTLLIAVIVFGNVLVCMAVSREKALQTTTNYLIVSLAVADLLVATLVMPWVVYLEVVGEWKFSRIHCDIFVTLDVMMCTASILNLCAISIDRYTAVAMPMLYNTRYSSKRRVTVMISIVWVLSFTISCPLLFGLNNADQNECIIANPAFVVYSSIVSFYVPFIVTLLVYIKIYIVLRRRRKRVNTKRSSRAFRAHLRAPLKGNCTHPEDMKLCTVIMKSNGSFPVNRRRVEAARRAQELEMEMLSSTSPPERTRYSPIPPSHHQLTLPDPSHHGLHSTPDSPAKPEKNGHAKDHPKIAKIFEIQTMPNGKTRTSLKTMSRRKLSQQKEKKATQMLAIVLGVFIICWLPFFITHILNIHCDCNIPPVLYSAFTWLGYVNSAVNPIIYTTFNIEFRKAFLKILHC
Chain of Histamine H2 receptor, HRH2 (h) (P25021 whole entry): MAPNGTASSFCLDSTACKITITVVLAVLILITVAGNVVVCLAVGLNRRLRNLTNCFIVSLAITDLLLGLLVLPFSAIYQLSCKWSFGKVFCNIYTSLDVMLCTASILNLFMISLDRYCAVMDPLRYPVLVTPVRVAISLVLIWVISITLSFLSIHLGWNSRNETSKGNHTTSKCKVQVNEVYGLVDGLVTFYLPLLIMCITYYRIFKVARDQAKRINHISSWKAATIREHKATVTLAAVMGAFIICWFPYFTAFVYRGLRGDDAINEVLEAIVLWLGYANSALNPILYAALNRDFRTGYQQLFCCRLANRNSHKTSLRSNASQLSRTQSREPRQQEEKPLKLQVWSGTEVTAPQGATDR
Chain of Kappa-type opioid receptor OPRK1 (h) (P41145 whole entry): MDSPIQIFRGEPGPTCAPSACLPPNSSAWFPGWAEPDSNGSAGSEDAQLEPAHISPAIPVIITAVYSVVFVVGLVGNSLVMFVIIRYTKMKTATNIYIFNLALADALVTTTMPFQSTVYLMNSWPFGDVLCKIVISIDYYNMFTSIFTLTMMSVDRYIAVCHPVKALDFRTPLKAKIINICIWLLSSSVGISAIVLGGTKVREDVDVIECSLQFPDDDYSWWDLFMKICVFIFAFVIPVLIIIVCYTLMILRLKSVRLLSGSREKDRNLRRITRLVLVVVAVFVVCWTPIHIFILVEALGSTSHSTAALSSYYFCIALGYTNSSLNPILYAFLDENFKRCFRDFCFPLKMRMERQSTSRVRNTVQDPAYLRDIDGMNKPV
Chain of Histamine H1 receptor, HRH1 (h) (P35367 whole entry): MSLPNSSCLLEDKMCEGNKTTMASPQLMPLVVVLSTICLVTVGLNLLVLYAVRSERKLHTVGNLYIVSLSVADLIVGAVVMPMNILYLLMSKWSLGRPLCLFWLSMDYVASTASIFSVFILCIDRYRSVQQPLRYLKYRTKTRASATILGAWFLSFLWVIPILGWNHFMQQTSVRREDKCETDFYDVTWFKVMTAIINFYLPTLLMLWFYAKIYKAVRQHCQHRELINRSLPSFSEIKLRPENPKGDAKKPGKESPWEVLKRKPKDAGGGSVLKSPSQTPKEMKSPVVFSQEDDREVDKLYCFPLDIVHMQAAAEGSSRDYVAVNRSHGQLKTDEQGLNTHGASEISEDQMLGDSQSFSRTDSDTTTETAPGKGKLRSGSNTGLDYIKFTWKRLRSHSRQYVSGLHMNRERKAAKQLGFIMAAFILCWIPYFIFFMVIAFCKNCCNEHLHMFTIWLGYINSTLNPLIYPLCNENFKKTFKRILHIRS

With `CC1(C)O[C@@H]2[C@@H](CO[C@@]3(COS(N)(=O)=O)OC(C)(C)O[C@@H]23)O1` [Topiramate, [(3aS,5aR,8aR,8bS)-2,2,7,7-Tetramethyltetrahydro-2H,3aH,7H-bis[1,3]dioxolo[4,5-b:4',5'-d]pyran-3a-yl]methyl sulfamate (non-preferred name)] the Specific binding ([1]; IPP screening at 100 uM) was -5.6%, the Enzymatic activity ([2]; IPP screening at 100 uM) was 27.9% and the Specific binding ([3]; IPP screening at 100 uM) was 13.3%. For the same molecule, the “pod_httr_bifrost PoD” value ([4]; HTTr BIFROST PoD) was 3696.73 µM, the “podl_path_minbmd PoD” value ([4]; HTTr minimum pathway BMD(L)) was 6631.79 µM and the “IPP screening %, Specific binding” value ([5]; 100 uM) was -7.3%. For the same molecule, the “IPP screening %, Specific binding” value ([6]; 100 uM, ligand/control Colchicine) was 5%, the Specific binding ([7]; IPP screening at 100 uM) was 3.7% and the “pod_httr_bifrost PoD” value ([8]; HTTr BIFROST PoD) was 28.4144 µM. The “podl_path_minbmd PoD” value ([8]; HTTr minimum pathway BMD(L)) was 48.7054 µM, the Specific binding ([9]; IPP screening at 100 uM, control veratridine) was 30.2% and the Specific binding ([10]; IPP screening at 100 uM) was 5.8%. The Specific binding ([11]; IPP screening at 100 uM) was 3.3%, the Enzymatic activity ([12]; IPP screening at 100 uM) was -0.1% and the Specific binding ([13]; IPP screening at 100 uM) was 10.5%. For the same molecule, the Specific binding ([14]; IPP screening at 100 uM) was 2.2%, the “IPP screening %, Specific binding” value ([15]; 100 uM) was 5.7% and the Specific binding ([16]; IPP screening at 100 uM) was -13.7%.

Molecule “(4S,4aR,5S,5aR,6S,12aS)-4-(Dimethylamino)-3,5,6,10,12,12a-hexahydroxy-6-methyl-1,11-dioxo-1,4,4a,5,5a,6,11,12a-octahydrotetracene-2-carboxamide--hydrogen chloride (1/1) [Oxytetracycline hydrochloride]” has a Specific binding ([1]; IPP screening at 10 uM) of -1.4%, an Enzymatic activity ([2]; IPP screening at 10 uM) of 9.6% and a Specific binding ([3]; IPP screening at 10 uM) of 22.7%. The “IPP screening %, Specific binding” value ([5]; 10 uM) was -8.1%, the “IPP screening %, Specific binding” value ([6]; 10 uM, ligand/control Colchicine) was -3.0% and the Specific binding ([7]; IPP screening at 10 uM) was 7.3%. The Specific binding [9] was 10.5%, the Specific binding ([11]; IPP screening at 10 uM) was -2.5% and the Specific binding ([13]; IPP screening at 10 uM) was 25.7%. The Specific binding ([14]; IPP screening at 10 uM) was 6.2%, the “IPP screening %, Specific binding” value ([15]; 10 uM) was -8.5% and the Specific binding ([16]; IPP screening at 10 uM) was -18.3%.

With “mixture of 2- and 3-tert-butyl-4-methoxyphenol [Butylated Hydroxyanisole]” the Specific binding ([1]; IPP screening at 10 uM) was 1.5%, the Enzymatic activity ([2]; IPP screening at 10 uM) was 12.2% and the Specific binding ([3]; IPP screening at 10 uM) was -16.2%. For the same molecule, the “IPP screening %, Specific binding” value ([5]; 10 uM) was -1.0%, the “IPP screening %, Specific binding” value [6] was -5.0% and the Specific binding ([7]; IPP screening at 10 uM) was 13.5%. The Specific binding [9] was 16.8%, the Specific binding ([10]; IPP screening at 10 uM) was -2.1% and the Specific binding ([11]; IPP screening at 10 uM) was -5.0%. For the same molecule, the Enzymatic activity ([12]; IPP screening at 10 uM) was 5.9%, the Specific binding ([13]; IPP screening at 10 uM) was -27.5% and the “IPP screening %, Specific binding” value [17] was -7.7%. The Specific binding ([14]; IPP screening at 10 uM) was 20.2%, the “IPP screening %, Specific binding” value ([15]; 10 uM) was 13.9% and the Specific binding ([16]; IPP screening at 10 uM) was -2.5%.
